5 molecules from patent publication US4820717A, “Antimicrobial aromatic derivatives substituted by an (omega amino) alkanol group and compositions containing them” (priority 1985, dated 1989) can be followed below.

Converted amounts (≈) assume the structure as drawn.

The test system of series [1] is Escherichia Coli CNCM 54125. The series is described as follows: Bactericidal activity (MBC), strain 1. The format is cell-based. Particulars: 20 min, strain 1, 20 minutes of contact, read-out: Minimum bactericidal concentration (MBC). An excerpt:
(§1) The bactericidal activity of the products according to the invention has been analyzed on various strains by the method described hereafter:
(§2) A bacterial inoculum is placed in contact with different dilutions of the product to be tested, and this for a limited period of time. At the end of contact, an aliquot part of the mixture bacterial suspension/product is deposited on the surface of an agar culture medium containing an agent neutralizing the antibacterial activity of the product. The bactericidal concentration retained is the smallest concentration of the product from which bacteria stop growing. Said concentration is expressed in μg/ml.
(§3) The bacterial strains selected for the analysis are:
1--Escherichia Coli CNCM 54125;
(§4) The second strain is supported on a Worgel Fergusson medium, the other strains being supported on Tryptic Soy Agar-Difco (TSA) commercialized by Difco.
(§5) After a 24-hour culture period at 37° C., the microbial growth is collected by means of glass beads and of 10 ml of diluent containing 1 g of tryptone and 8.5 g of sodium chloride in 1000 ml of distilled water. The formed suspension is stirred and the percentage of light transmission at 620 nm is measured with a spectrophotometer:
(§6) The bacterial inoculum corresponds to a 1/20th dilution of this bacterial suspension.
(§7) Plates equipped with cupules receive different dilutions of the product to be analyzed. These dilutions are placed in contact with the different bacterial suspensions by means of a multiple-center inoculator. After 20 minutes of contact, aliquot parts are transferred by means of said inoculator on the surface of an agar medium (TSA) in Petri dishes, containing an activity-neutralizing agent, namely 20 g of lubrol W, 25 g of Tween 80 and 2.5 g of sodium thiosulfate in 1000 ml of TSA (Difco). The efficiency of the neutralizing agent is controlled for each product to be analyzed by depositing on the surface of the culture medium an aliquot part of the dilution of the product to be analyzed. After drying, the corresponding inoculum is deposited in the same place. An inoculum control is performed on an agar medium with or without neutralizing agent. Readings are taken after 48 hours of incubation at 37° C.

In series [2] the test system is Streptococcus faecalis CNCM 5855. The series is described as follows: Bactericidal activity (MBC), strain 4. The format is cell-based. To be noted: Enterococcus faecalis, CNCM5855, 20 min; strain 4, 20 minutes of contact; read-out: Minimum bactericidal concentration (MBC).
Source text: as §1, §2, §3
4--Streptococcus faecalis CNCM 5855;
as §4, §5, §6, §7

Series [3] has as its system guinea-pig skin. The series is described as follows: Skin sensitization test in the guinea-pig. To be noted: one week treatment after two weeks' rest. Type of series: in vivo. How it is done:
The tolerance of the products according to the invention was tested in the guinea-pig. The animals are shorn on both sides of the middle line of the back, the shearing being kept up every other day. Batches of 6 animals receive, on the shorn part, 0.2 ml of an aqueous or alcoholic solution of the product according to the invention. When these products are in alcoholic solution, one control batch of animals receives the alcohol on one side. The skin sensitization test is performed on the same animals after two weeks' rest. The treatment lasts one week, it is identical to the preceding one. The evaluation is based on the same criteria and on the same scale as used to determine the local tolerance.

For series [4], the system named is Candida parakruzei 3918. As to the kind of experiment: Antifungal activity (MFC), strain 3. Type of series: cell-based. To be noted: 20 min; yeast strain 3; read-out: Minimum fongicidal concentration (MFC).
Source text: as §2, §7
(§8) The antifungal activity of the products according to the invention was also determined with the aforedescribed method.
(§9) The fungal strains selected for the analysis are:
3--Candida parakruzei 3918;
(§10) These strains are supported on a Sabouraud Dextrose agar medium commercialized by Difco; the technique used is the same as that used in the analysis of the antibacterial activity. After 48 hours of culture at 37° C., the microbial growth is collected with glass beads and 5 ml of diluent containing 1 g of tryptone and 8.5 g of sodium chloride in 1000 ml of distilled water; 5 ml of the diluent are then added. […] A 1/100th dilution of this suspension, observed between slides under a microscope 40-lens, should show 10 cells per frame, this corresponding to 1,000,000 yeasts per ml.

In series [5] the test system is Candida albicans CNCM 1180. As to the kind of experiment: Antifungal activity (MFC), strain 1. The format is cell-based. To be noted: 20 min; yeast strain 1; read-out: Minimum fongicidal concentration (MFC).
Source text: as §2, §7, §8, §9
1--Candida albicans CNCM 1180;
as §10

For series [6], the system named is Staphylococcus aureus CNCM 53154. As to the kind of experiment: Bactericidal activity (MBC), strain 5. The format is cell-based. Particulars: CNCM53154, 20 min, strain 5, 20 minutes of contact, read-out: Minimum bactericidal concentration (MBC).
Source text: as §1, §2, §3
5--Staphylococcus aureus CNCM 53154.
as §4, §5, §6, §7

In series [7] the test system is Torulopsis glabrata 072023. As to the kind of experiment: Antifungal activity (MFC), strain 4. The format is cell-based. To be noted: 20 min; yeast strain 4; read-out: Minimum fongicidal concentration (MFC).
Source text: as §2, §7, §8, §9, §10

Series [8] is described as follows: Acute toxicity by oral route in mice. To be noted: mouse, in vivo, per os, male CD1 mice, 14 days observation. How it is done: Acute toxicity was tested by oral route in mice. This test was carried out with male mice of CD1 strain, obtained from the Charles Reever breeding farm. Each batch was composed of 5 animals of body weight varying between 24 and 30 g kept in the same cage. The animals were kept fasting for 6 hours before the treatment. For every test, the product, placed in suspension in a 10% solution of gum arabic, was administered by forcible feeding with an oesophageal probe. Food was then served to the animals 4 hours after the forcible feeding and the animals were kept under observation for a period of 14 days after the administration. During that period, the death rate is recorded for each batch of animals used in the experiment and, wherever possible, the LD50 is determined by the method of J. T. Litchfield and F. Wilcoxon, J. Pharmacol. 1949, 95, 99-113.
The results are given in mg of substance tested per kg of body weight. They are compiled in Table III below.

Series [9] deals with Pseudomonas aeruginosa CNCM A22. The series is described as follows: Bactericidal activity (MBC), strain 3. The format is cell-based. Particulars: CNCMA22, 20 min, strain 3, 20 minutes of contact, read-out: Minimum bactericidal concentration (MBC).
Source text: as §1, §2, §3
3--Pseudomonas aeruginosa CNCM A22;
as §4, §5, §6, §7

Series [10] has as its system guinea-pig. As to the kind of experiment: Phototoxic or photoallergic effect on the guinea-pig. Type of series: in vivo. The source says:
The products according to the invention have also been tested for a phototoxic or photoallergic effect on the guina-pig. The technique used is that of J. Unkovic, G. Mazue and J. Girard, in "Sciences et Techniques de l'Animal de Laboratoire", 1983, 8 (3), 149-160. This is an adaptation of the techniques described by L. C. Harber et al., Arch. Dermatol., 1967, 96, 646-656 and L. J. Vinson et al., Arch. Dermatol., 1966, 17, 123-130.

The subject of series [11] is Encapsulated klebsiella pneumoniae R030. The series is described as follows: Bactericidal activity (MBC), strain 2. Type of series: cell-based. Particulars: 20 min, strain 2, 20 minutes of contact, read-out: Minimum bactericidal concentration (MBC).
Source text: as §1, §2, §3
2--Encapsulated klebsiella pneumoniae R030;
as §4, §5, §6, §7

Series [12] has as its system guinea-pig skin. The series is described as follows: Preliminary skin tolerance in the guinea-pig. Type of series: in vivo. Particulars: 0.2 ml on shorn skin once a day, six days out of seven, three weeks. The procedure:
The tolerance of the products according to the invention was tested in the guinea-pig. The animals are shorn on both sides of the middle line of the back, the shearing being kept up every other day. Batches of 6 animals receive, on the shorn part, 0.2 ml of an aqueous or alcoholic solution of the product according to the invention. When these products are in alcoholic solution, one control batch of animals receives the alcohol on one side.
To study the preliminary skin tolerance, the treatment is applied once a day, six days out of seven, for three weeks. The observations made of the skin are concerned with the presence of erythema, skin eruptions or hyperkeratosis, the intensity of which is graduated according to a preset scale.

The test system of series [13] is Candida tropicalis 3834. As to the kind of experiment: Antifungal activity (MFC), strain 2. The format is cell-based. To be noted: 20 min; yeast strain 2; read-out: Minimum fongicidal concentration (MFC).
Source text: as §2, §7, §8, §9
2--Candida tropicalis 3834;
as §10

What is called LD50 is the dose expected to kill half of the subjects tested.

Turning to `OCC(CCN1CCCCC1)c1cccc2ccccc12` (centres unmarked) [SR 43 077 A], the MBC in series [1] worked out at 600 µg/mL (≈ 2.12 mM); in series [2], 600 µg/mL (≈ 2.12 mM); in series [6], 600 µg/mL (≈ 2.12 mM); in [9] it was 800 µg/mL (≈ 2.82 mM); in [11], 600 µg/mL (≈ 2.12 mM). Further, the “products found to have a sensibilizing effect” value in [3] is given as “None”. The MFC in series [4] worked out at 1000 µg/mL (≈ 3.53 mM); in series [5], 1000 µg/mL (≈ 3.53 mM); in series [7], 5000 µg/mL (≈ 17.6 mM); in series [13] it was 1000 µg/mL (≈ 3.53 mM). Moreover, the LD50 at 336 h in series [8] was 300 to 400 mg/kg. Moreover, in series [10], the “products found to have a phototoxic or photoallergic effect” value is given as “None”. Also, in series [12], the “products found to have a bad tolerance” value is listed as “None”.
On to `OCC(CCN1CCCCCC1)c1ccc2ccccc2c1` (centres unmarked) [SR 43 270 A], for which the MBC in [1] came out at 1000 µg/mL (≈ 3.36 mM); in [2], 2000 µg/mL (≈ 6.72 mM); in series [6], 1000 µg/mL (≈ 3.36 mM); in series [9], 1000 µg/mL (≈ 3.36 mM); in [11], 1000 µg/mL (≈ 3.36 mM). Moreover, the “products found to have a sensibilizing effect” value in series [3] is “None”. The MFC in [4] amounted to 1000 µg/mL (≈ 3.36 mM); in series [5] it was 500 µg/mL (≈ 1.68 mM); in [7], 5000 µg/mL (≈ 16.8 mM); in series [13], 1000 µg/mL (≈ 3.36 mM). For the same molecule, the “products found to have a phototoxic or photoallergic effect” value in series [10] is listed as “None”. Moreover, the “products found to have a bad tolerance” value in series [12] is “None”.
As to `CN(C)CCC(CO)c1cccc2ccccc12` (centres unmarked) [SR 42 643 A], the MBC in series [1] stood at 5000 µg/mL (≈ 20.5 mM); in series [2] it was 2000 µg/mL (≈ 8.22 mM); in [6], 1000 µg/mL (≈ 4.11 mM); in [9], 1000 µg/mL (≈ 4.11 mM); in series [11] it was 5000 µg/mL (≈ 20.5 mM). Moreover, the “products found to have a sensibilizing effect” value in [3] is “None”. Also, the LD50 at 336 h in [8] is 400 mg/kg. For the same molecule, the “products found to have a phototoxic or photoallergic effect” value in series [10] is “None”. The “products found to have a bad tolerance” value in series [12] is “None”.
As to `Cl.OCC(CCCCCCN1CCCCC1)c1cccc2ccccc12` (centres unmarked) [SR 43 157 A, 8-piperidino-2-(1-naphthyl)-octanol hydrochloride], the MBC in series [1] was 200 µg/mL; in series [2] it was 200 µg/mL; in series [6], 200 µg/mL; in series [9], 100 µg/mL; in series [11], 200 µg/mL. Further, the “products found to have a sensibilizing effect” value in series [3] is “None”. Also, the MFC in [4] was 300 µg/mL; in [5], 300 µg/mL; in series [7] it was 1000 µg/mL; in series [13] it was 300 µg/mL. In addition, the “products found to have a phototoxic or photoallergic effect” value in [10] is recorded as “None”. Besides, in series [12], the “products found to have a bad tolerance” value is listed as “None”.
For the molecule `CN(C)CCCC(CO)c1cccc2ccccc12` (centres unmarked) [SR 42 994 A], the MBC worked out at 1000 µg/mL (≈ 3.89 mM) in series [1]; 1000 µg/mL (≈ 3.89 mM) in series [2]; 1000 µg/mL (≈ 3.89 mM) in series [6]; 1000 µg/mL (≈ 3.89 mM) in [9]; 800 µg/mL (≈ 3.11 mM) in [11]. Moreover, the MFC in series [4] was 500 µg/mL (≈ 1.94 mM); in series [5], 500 µg/mL (≈ 1.94 mM); in [7], 5000 µg/mL (≈ 19.4 mM); in series [13], 500 µg/mL (≈ 1.94 mM). Further, the LD50 at 336 h in series [8] is 750 to 1000 mg/kg.
